Several values for one entry are separate records, joined by “and”; a condition that tells them apart may be missing. Identical values can stand only once.
Legend:
Assay in all cases: radiometric filter-binding kinase assay, Kinase HotSpot
Conditions in all cases: compound 0.5 µM; ATP 10 µM
ACVRL1 (human) = ACVRL1 (human) (UniProt P37023)
AKT3 (human) = AKT3 (human) (UniProt Q9Y243)
CAMK4 (human) = CAMK4 (human) (UniProt Q16566)
CDK1 CCNB1 (human) = CDK1 CCNB1 (human) (UniProt P06493+P14635)
CDK2 CCNA2 (human) = CDK2 CCNA2 (human) (UniProt P24941+P20248)
CDK3 CCNE1 (human) = CDK3 CCNE1 (human) (UniProt Q00526+P24864)
CDK4 CCND1 (human) = CDK4 CCND1 (human) (UniProt P24385+P11802)
CHEK2 (human) = CHEK2 (human) (UniProt O96017)
CLK4 (human) = CLK4 (human) (UniProt Q9HAZ1)
CSF1R (human) = CSF1R (human) (UniProt P07333)
CSF1R (human), sequence (P07333 whole entry, looked up): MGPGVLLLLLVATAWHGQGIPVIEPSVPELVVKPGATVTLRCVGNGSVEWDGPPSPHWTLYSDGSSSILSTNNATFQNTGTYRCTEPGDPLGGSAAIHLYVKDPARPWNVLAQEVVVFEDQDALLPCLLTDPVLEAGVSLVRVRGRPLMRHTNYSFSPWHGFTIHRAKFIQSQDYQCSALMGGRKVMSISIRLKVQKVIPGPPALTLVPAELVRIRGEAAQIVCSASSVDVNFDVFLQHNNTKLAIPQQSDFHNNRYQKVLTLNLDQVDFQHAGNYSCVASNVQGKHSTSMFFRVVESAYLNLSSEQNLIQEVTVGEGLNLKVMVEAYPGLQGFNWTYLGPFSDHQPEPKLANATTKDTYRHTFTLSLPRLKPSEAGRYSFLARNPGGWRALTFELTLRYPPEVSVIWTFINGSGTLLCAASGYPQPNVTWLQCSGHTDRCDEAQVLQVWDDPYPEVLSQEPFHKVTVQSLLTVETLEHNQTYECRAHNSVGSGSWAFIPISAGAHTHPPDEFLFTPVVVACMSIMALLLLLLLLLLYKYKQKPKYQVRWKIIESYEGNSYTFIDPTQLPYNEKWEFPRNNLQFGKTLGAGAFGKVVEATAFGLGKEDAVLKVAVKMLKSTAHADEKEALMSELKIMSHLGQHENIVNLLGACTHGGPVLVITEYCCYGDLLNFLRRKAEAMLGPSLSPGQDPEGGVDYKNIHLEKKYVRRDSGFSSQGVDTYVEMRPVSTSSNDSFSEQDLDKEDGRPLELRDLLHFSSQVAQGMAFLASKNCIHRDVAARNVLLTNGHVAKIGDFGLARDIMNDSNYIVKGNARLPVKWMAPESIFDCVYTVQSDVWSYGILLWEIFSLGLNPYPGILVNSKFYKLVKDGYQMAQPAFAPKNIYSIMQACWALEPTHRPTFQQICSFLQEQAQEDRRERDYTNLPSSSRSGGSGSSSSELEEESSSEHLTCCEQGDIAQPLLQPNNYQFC

CSNK1G2 (human) = CSNK1G2 (human) (UniProt P78368)
CSNK1G2 (human), sequence (P78368 whole entry, looked up): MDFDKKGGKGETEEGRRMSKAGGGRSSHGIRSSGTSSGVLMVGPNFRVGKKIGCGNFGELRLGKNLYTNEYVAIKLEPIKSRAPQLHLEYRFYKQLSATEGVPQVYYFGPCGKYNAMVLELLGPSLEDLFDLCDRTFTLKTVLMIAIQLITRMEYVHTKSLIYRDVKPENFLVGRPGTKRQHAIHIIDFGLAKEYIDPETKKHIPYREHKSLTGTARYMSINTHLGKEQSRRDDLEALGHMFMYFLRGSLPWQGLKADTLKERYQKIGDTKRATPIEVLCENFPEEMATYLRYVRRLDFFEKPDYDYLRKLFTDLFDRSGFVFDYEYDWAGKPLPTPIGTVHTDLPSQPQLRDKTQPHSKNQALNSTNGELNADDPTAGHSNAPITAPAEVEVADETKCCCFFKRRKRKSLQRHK

CSNK2A2 (human) = CSNK2A2 (human) (UniProt P19784)
DYRK3 (human) = DYRK3 (human) (UniProt O43781)
EPHA7 (human) = EPHA7 (human) (UniProt Q15375)
EPHA8 (human) = EPHA8 (human) (UniProt P29322)
EPHB2 (human) = EPHB2 (human) (UniProt P29323)
FER (human) = FER (human) (UniProt P16591)
IRAK1 (human) = IRAK1 (human) (UniProt P51617)
LYN (human) = LYN (human) (UniProt P07948)
[1] = tested on: MAP2K6 (human), P52564 [S207E/T211E]
MAP2K6 (human), P52564 [S207E/T211E], sequence (P52564 whole entry S207E/T211E, looked up): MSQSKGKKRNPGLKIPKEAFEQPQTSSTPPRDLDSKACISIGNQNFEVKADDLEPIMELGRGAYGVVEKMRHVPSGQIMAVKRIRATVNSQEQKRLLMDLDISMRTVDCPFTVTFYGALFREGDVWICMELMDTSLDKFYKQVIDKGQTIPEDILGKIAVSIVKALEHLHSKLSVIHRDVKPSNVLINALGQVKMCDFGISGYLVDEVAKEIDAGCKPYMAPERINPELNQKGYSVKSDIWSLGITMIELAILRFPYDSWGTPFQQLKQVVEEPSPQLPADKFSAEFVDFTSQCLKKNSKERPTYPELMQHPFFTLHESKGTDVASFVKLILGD

MAP3K5 (human) = MAP3K5 (human) (UniProt Q99683)
MAPK1 (human) = MAPK1 (human) (UniProt P28482)
MARK2 (human) = MARK2 (human) (UniProt Q7KZI7)
MUSK (human) = MUSK (human) (UniProt O15146)
NUAK1 (human) = NUAK1 (human) (UniProt O60285)
PAK3 (human) = PAK3 (human) (UniProt O75914)
PAK3 (human), sequence (O75914 whole entry, looked up): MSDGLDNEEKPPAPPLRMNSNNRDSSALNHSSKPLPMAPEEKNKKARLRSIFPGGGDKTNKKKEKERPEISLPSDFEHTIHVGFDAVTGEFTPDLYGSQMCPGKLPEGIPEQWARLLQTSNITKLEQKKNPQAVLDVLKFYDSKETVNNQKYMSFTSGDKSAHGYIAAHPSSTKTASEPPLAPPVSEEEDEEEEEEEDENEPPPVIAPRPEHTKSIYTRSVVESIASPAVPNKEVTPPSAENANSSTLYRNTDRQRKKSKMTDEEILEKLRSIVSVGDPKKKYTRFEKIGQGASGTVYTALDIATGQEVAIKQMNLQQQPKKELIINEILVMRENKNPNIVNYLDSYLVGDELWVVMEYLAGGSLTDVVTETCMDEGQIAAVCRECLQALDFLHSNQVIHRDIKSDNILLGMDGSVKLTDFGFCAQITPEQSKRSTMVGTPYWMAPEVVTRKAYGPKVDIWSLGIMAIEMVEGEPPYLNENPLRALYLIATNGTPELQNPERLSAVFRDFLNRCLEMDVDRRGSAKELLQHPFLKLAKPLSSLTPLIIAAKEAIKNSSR

PAK7 (human) = PAK7 (human) (UniProt Q9P286)
PBK (human) = PBK (human) (UniProt Q96KB5)
PHKG2 (human) = PHKG2 (human) (UniProt P15735)
PHKG2 (human), sequence (P15735 whole entry, looked up): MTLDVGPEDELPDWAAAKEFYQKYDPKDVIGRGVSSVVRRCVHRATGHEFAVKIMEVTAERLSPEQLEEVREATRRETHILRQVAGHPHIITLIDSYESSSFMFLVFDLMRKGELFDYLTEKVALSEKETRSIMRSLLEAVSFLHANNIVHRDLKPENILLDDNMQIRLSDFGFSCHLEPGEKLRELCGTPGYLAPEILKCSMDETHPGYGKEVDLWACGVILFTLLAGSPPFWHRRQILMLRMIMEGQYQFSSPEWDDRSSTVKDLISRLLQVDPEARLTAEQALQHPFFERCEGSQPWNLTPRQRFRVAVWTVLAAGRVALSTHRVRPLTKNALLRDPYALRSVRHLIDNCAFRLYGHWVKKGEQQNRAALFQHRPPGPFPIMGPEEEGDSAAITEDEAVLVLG

PLK2 (human) = PLK2 (human) (UniProt Q9NYY3)
PRKG2 (human) = PRKG2 (human) (UniProt Q13237)
PRKX (human) = PRKX (human) (UniProt P51817)
PRKX (human), sequence (P51817 whole entry, looked up): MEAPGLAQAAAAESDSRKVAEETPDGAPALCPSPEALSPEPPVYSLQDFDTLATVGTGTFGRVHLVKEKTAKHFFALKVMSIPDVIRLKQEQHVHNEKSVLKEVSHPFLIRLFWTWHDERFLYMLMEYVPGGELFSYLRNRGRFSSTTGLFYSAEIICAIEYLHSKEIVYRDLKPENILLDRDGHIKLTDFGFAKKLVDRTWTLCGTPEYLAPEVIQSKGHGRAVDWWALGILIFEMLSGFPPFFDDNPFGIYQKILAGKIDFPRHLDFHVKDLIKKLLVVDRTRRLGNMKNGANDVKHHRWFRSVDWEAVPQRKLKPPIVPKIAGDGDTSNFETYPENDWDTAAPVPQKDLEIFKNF

ROS1 (human) = ROS1 (human) (UniProt P08922)
RPS6KA2 KD1 KD2 (human) = RPS6KA2 KD1 KD2 (human) (UniProt Q15349)
SRMS (human) = SRMS (human) (UniProt Q9H3Y6)
STK3 (human) = STK3 (human) (UniProt Q13188)
STK39 (human) = STK39 (human) (UniProt Q9UEW8)
TAOK1 (human) = TAOK1 (human) (UniProt Q7L7X3)
TEK (human) = TEK (human) (UniProt Q02763)
TGFBR1 (human) = TGFBR1 (human) (UniProt P36897)
TYRO3 (human) = TYRO3 (human) (UniProt Q06418)
ULK1 (human) = ULK1 (human) (UniProt O75385)

CAMK4 (human), sequence (Q16566 whole entry, looked up): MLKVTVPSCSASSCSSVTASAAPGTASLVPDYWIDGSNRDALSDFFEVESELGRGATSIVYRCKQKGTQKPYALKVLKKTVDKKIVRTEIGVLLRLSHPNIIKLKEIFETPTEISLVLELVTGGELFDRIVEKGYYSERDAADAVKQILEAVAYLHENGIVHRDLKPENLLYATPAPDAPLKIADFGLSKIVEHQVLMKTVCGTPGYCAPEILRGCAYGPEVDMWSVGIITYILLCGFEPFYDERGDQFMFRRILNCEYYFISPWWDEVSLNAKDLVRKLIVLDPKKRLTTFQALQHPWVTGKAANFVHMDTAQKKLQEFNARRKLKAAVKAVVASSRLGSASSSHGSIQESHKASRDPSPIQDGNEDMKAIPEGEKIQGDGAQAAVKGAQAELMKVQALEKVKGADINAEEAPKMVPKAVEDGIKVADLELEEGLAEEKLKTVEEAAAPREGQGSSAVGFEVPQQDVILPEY
CDK1 CCNB1 (human), sequence (P06493 whole entry, looked up): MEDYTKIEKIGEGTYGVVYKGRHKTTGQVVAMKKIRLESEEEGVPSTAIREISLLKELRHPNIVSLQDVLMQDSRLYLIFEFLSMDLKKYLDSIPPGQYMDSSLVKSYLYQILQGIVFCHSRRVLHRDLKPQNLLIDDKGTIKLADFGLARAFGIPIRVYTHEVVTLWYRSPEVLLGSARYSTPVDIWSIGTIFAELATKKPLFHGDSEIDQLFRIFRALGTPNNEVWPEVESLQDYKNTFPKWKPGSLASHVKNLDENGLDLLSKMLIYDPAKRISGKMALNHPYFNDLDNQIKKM
CDK1 CCNB1 (human), sequence (P14635 whole entry, looked up): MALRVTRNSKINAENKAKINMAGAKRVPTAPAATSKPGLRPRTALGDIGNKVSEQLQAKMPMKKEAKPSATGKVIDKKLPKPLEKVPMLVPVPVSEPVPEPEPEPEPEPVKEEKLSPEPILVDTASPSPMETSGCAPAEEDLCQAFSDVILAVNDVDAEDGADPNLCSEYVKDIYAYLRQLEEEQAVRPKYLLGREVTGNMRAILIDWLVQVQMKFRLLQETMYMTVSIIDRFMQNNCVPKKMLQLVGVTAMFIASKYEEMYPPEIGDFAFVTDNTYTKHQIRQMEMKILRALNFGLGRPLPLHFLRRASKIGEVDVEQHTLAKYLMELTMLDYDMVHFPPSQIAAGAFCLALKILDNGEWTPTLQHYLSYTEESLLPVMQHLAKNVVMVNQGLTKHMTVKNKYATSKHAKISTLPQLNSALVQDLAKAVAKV
ACVRL1 (human), sequence (P37023 whole entry, looked up): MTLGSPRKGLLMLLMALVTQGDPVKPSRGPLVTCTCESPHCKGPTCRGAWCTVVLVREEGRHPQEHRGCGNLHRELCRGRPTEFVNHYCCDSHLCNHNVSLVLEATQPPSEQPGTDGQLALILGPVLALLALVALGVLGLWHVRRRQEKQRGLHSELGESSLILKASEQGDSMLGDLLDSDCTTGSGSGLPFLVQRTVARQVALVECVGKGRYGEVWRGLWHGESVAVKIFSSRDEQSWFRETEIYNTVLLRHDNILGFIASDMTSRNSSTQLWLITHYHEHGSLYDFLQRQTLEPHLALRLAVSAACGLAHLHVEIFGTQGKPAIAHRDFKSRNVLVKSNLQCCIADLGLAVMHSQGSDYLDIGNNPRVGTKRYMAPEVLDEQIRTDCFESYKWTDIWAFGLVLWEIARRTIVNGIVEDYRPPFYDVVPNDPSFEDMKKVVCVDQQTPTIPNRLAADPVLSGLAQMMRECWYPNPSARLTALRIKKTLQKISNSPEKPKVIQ

Question: What does the source list for O=C1NC(=O)c2c1c1c3ccccc3[nH]c1n1cncc21?
Answer: residual activity (ACVRL1 (human)): 109%; residual activity (AKT3 (human)): 94.3%; residual activity (CAMK4 (human)): 89.8%; residual activity (CDK1 CCNB1 (human)): 85.5%; residual activity (CDK2 CCNA2 (human)): 75.9%; residual activity (CDK3 CCNE1 (human)): 76.7%; residual activity (CDK4 CCND1 (human)): 86%; residual activity (CHEK2 (human)): 21.2%; residual activity (CLK4 (human)): 99%; residual activity (CSF1R (human)): 64.9%; residual activity (CSNK1G2 (human)): 63.4%; residual activity (CSNK2A2 (human)): 53.4%; residual activity (DYRK3 (human)): 85.8%; residual activity (EPHA7 (human)): 78.8%; residual activity (EPHA8 (human)): 97.5%; residual activity (EPHB2 (human)): 86.1%; residual activity (FER (human)): 47.9%; residual activity (IRAK1 (human)): 83.1%; residual activity (LYN (human)): 94.8% and 96.2%; residual activity [1]: 65.7%; residual activity (MAP3K5 (human)): 97.8%; residual activity (MAPK1 (human)): 125%; residual activity (MARK2 (human)): 34.7%; residual activity (MUSK (human)): 54.4%; residual activity (NUAK1 (human)): 12.1%; residual activity (PAK3 (human)): 100%; residual activity (PAK7 (human)): 80%; residual activity (PBK (human)): 72.4%; residual activity (PHKG2 (human)): 108%; residual activity (PLK2 (human)): 63.8%; residual activity (PRKG2 (human)): 64.1%; residual activity (PRKX (human)): 87.8%; residual activity (ROS1 (human)): 77%; residual activity (RPS6KA2 KD1 KD2 (human)): 32.7%; residual activity (SRMS (human)): 100%; residual activity (STK3 (human)): 41%; residual activity (STK39 (human)): 104%; residual activity (TAOK1 (human)): 135%; residual activity (TEK (human)): 78.9%; residual activity (TGFBR1 (human)): 96.3%; residual activity (TYRO3 (human)): 88.8%; residual activity (ULK1 (human)): 97.2%

Question: With CN(C)CCCn1cc(C2=C(c3c[nH]c4ccccc34)C(=O)NC2=O)c2ccccc21 as the molecule, how does the residual activity (ACVRL1 (human)) read?
Answer: 107%

Question: What about the residual activity (AKT3 (human)) of the same molecule?
Answer: 31.5%

Question: And the residual activity (CAMK4 (human))?
Answer: 89.5%

Question: And the residual activity (CDK1 CCNB1 (human))?
Answer: 92%

Question: And the residual activity (CDK2 CCNA2 (human))?
Answer: 85.2%

Question: What about the residual activity (CDK3 CCNE1 (human)) of the same molecule?
Answer: 93.2%

Question: And the residual activity (CDK4 CCND1 (human))?
Answer: 60.7%

Question: What about the residual activity (CHEK2 (human)) of the same molecule?
Answer: 68.5%

Question: And the residual activity (CLK4 (human))?
Answer: 44.8%

Question: What about the residual activity (CSF1R (human)) of the same molecule?
Answer: 76.7%

Question: And the residual activity (CSNK1G2 (human))?
Answer: 90.3%

Question: What about the residual activity (CSNK2A2 (human)) of the same molecule?
Answer: 92%

Question: And the residual activity (DYRK3 (human))?
Answer: 97.9%

Question: And the residual activity (EPHA7 (human))?
Answer: 97%

Question: And the residual activity (EPHA8 (human))?
Answer: 103%

Question: And the residual activity (EPHB2 (human))?
Answer: 100%

Question: What about the residual activity (FER (human)) of the same molecule?
Answer: 69.8%

Question: What about the residual activity (IRAK1 (human)) of the same molecule?
Answer: 91.1%

Question: What about the residual activity (LYN (human)) of the same molecule?
Answer: 104% and 84.1%

Question: And the residual activity [1]?
Answer: 97.4%

Question: And the residual activity (MAP3K5 (human))?
Answer: 90.2%

Question: What about the residual activity (MAPK1 (human)) of the same molecule?
Answer: 100%

Question: What about the residual activity (MARK2 (human)) of the same molecule?
Answer: 71.7%

Question: What about the residual activity (MUSK (human)) of the same molecule?
Answer: 71.9%

Question: What about the residual activity (NUAK1 (human)) of the same molecule?
Answer: 25.9%

Question: And the residual activity (PAK3 (human))?
Answer: 92.1%

Question: What about the residual activity (PAK7 (human)) of the same molecule?
Answer: 92.8%

Question: And the residual activity (PBK (human))?
Answer: 81.3%

Question: What about the residual activity (PHKG2 (human)) of the same molecule?
Answer: 97.9%

Question: What about the residual activity (PLK2 (human)) of the same molecule?
Answer: 97.3%

Question: And the residual activity (PRKG2 (human))?
Answer: 38.7%

Question: And the residual activity (PRKX (human))?
Answer: 85.3%

Question: What about the residual activity (ROS1 (human)) of the same molecule?
Answer: 62.8%

Question: And the residual activity (RPS6KA2 KD1 KD2 (human))?
Answer: 1.4%

Question: And the residual activity (SRMS (human))?
Answer: 104%

Question: What about the residual activity (STK3 (human)) of the same molecule?
Answer: 44.2%

Question: And the residual activity (STK39 (human))?
Answer: 91.9%

Question: What about the residual activity (TAOK1 (human)) of the same molecule?
Answer: 80.8%

Question: And the residual activity (TEK (human))?
Answer: 99.7%

Question: What about the residual activity (TGFBR1 (human)) of the same molecule?
Answer: 102%

Question: What about the residual activity (TYRO3 (human)) of the same molecule?
Answer: 97.2%

Question: And the residual activity (ULK1 (human))?
Answer: 84.7%

Question: COc1ccc2c(c1)/C(=C/c1cnc[nH]1)C(O)=N2 was tested. Which residual activity (ACVRL1 (human)) did it give?
Answer: 98.7%

Question: And the residual activity (AKT3 (human))?
Answer: 101%

Question: What about the residual activity (CAMK4 (human)) of the same molecule?
Answer: 97.4%

Question: And the residual activity (CDK1 CCNB1 (human))?
Answer: 35.9%

Question: And the residual activity (CDK3 CCNE1 (human))?
Answer: 35.2%

Question: And the residual activity (CDK4 CCND1 (human))?
Answer: 33.7%

Question: What about the residual activity (CHEK2 (human)) of the same molecule?
Answer: 77.9%

Question: And the residual activity (CLK4 (human))?
Answer: 72.6%

Question: What about the residual activity (CSF1R (human)) of the same molecule?
Answer: 88.7%

Question: What about the residual activity (CSNK1G2 (human)) of the same molecule?
Answer: 95.3%

Question: And the residual activity (CSNK2A2 (human))?
Answer: 77.5%

Question: What about the residual activity (DYRK3 (human)) of the same molecule?
Answer: 98.6%

Question: What about the residual activity (EPHA7 (human)) of the same molecule?
Answer: 90.4%

Question: And the residual activity (EPHA8 (human))?
Answer: 103%

Question: And the residual activity (EPHB2 (human))?
Answer: 100%

Question: And the residual activity (FER (human))?
Answer: 88.4%

Question: And the residual activity (IRAK1 (human))?
Answer: 101%

Question: What about the residual activity (LYN (human)) of the same molecule?
Answer: 88.3% and 98.3%

Question: What about the residual activity [1] of the same molecule?
Answer: 90.1%

Question: What about the residual activity (MAP3K5 (human)) of the same molecule?
Answer: 103%

Question: And the residual activity (MAPK1 (human))?
Answer: 93.1%

Question: What about the residual activity (MARK2 (human)) of the same molecule?
Answer: 50%

Question: And the residual activity (MUSK (human))?
Answer: 78.3%

Question: What about the residual activity (NUAK1 (human)) of the same molecule?
Answer: 8.87%

Question: And the residual activity (PAK3 (human))?
Answer: 99.2%

Question: And the residual activity (PAK7 (human))?
Answer: 96.9%

Question: And the residual activity (PBK (human))?
Answer: 124%

Question: What about the residual activity (PHKG2 (human)) of the same molecule?
Answer: 88.3%

Question: And the residual activity (PLK2 (human))?
Answer: 95.2%

Question: What about the residual activity (PRKG2 (human)) of the same molecule?
Answer: 99.7%

Question: What about the residual activity (PRKX (human)) of the same molecule?
Answer: 87.9%

Question: What about the residual activity (ROS1 (human)) of the same molecule?
Answer: 91.1%

Question: What about the residual activity (RPS6KA2 KD1 KD2 (human)) of the same molecule?
Answer: 44.3%

Question: What about the residual activity (SRMS (human)) of the same molecule?
Answer: 103%

Question: What about the residual activity (STK3 (human)) of the same molecule?
Answer: 12.2%

Question: And the residual activity (STK39 (human))?
Answer: 86.1%

Question: And the residual activity (TAOK1 (human))?
Answer: 82.3%

Question: What about the residual activity (TEK (human)) of the same molecule?
Answer: 98.4%

Question: What about the residual activity (TGFBR1 (human)) of the same molecule?
Answer: 98.1%

Question: What about the residual activity (TYRO3 (human)) of the same molecule?
Answer: 99.2%

Question: What about the residual activity (ULK1 (human)) of the same molecule?
Answer: 53.4%

— the kinase profiling compilation of Christmann-Franck et al. (2016)
